The values that follow come from patent publication US6756380B1, “5-phenyl-pyrimidine derivatives” (Hoffmann-La Roche Inc., priority 1999, dated 2004).

The target in one data set is T1, human NK1 receptor (Homo sapiens, UniProt P25103).
T1 construct: expressed in transfected cells; host or cells: CHO cells infected with Semliki virus expression system; membrane suspension
Nature of the data set: NK1 receptor binding assay, displacement of [3H]substance P. The note with it: [3H]substance P (0.6 nM) displacement; CHO cells infected with the human NK1 receptor (Semliki virus expression system); 60 min at room temperature; read-out: affinity to the NK-1 receptor, given as pKi (converted). As to the method: The affinity of test compounds for the NK, receptor was evaluated at human NK, receptors in CHO cells infected with the human NK1 receptor (using the Semliki virus expression system) and radiolabelled with [^3H]substance P (final concentration 0.6 nM). Binding assays were performed in HEPES buffer (50 mM, pH 7.4) containing BSA (0.04 %) leupeptin (8 μg/ml), MnCl2 (3mM) and phosphoramidon (2 μM). Binding assays consisted of 250 μl of membrane suspension (1.25×10^5 cells/assay tube), […] of buffer of displacing agent and 125 μl of [^3H]substance P. Displacement curves were determined with at least seven concentrations of the compound. The assay tubes were incubated for 60 min at room temperature after which time the tube contents were rapidly filtered under vacuum through GF/C filters presoaked for 60 min with PEI (0.3%) with 2×2 ml washed of HEPES buffer (50 mM, pH 7.4). The radioactivity retained on the filters was measured by scintillation counting. All assays were performed in triplicate in at least 2 separate experiments.

Structures can show the parent of a compound that is named as a salt.

T1 sequence (P25103 whole entry): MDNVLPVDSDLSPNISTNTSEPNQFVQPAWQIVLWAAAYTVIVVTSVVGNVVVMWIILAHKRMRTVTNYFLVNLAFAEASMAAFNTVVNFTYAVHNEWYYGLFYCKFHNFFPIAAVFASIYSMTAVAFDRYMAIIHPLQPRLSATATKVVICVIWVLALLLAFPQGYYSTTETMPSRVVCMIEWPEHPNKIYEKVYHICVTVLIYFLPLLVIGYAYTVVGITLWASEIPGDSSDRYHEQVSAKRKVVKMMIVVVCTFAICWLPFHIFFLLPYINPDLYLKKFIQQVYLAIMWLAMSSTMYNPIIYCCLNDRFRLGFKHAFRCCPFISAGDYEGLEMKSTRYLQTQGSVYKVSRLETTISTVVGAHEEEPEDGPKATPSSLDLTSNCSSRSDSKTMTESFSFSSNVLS

As for `Cc1ccccc1-c1cnc(OCCN(C)C)nc1C(=O)N(C)Cc1cc(C(F)(F)F)cc(C(F)(F)F)c1` (as salt: hydrochloride) [Example 21, 2-(2-Dimethylamino-ethoxy)-5-o-tolyl-pyrimidine-4-carboxylic acid (3,5-bis-trifluoromethyl-benzyl)-methyl-amide], the melting point lay within 147 to 149 °C.

For the compound `Cc1cc(F)ccc1-c1cnc(NCCN(C)C)nc1C(=O)N(C)Cc1cc(C(F)(F)F)cc(C(F)(F)F)c1` [Example 54, 2-(2-Dimethylamino-ethylamino)-5-(4-fluoro-2-methyl-phenyl)-pyrimidine-4-carboxylic acid (3,5-bis-trifluoromethyl-benzyl)-methyl-amide], the Ki on human NK1 receptor is 1.45 nM.

As to `Cc1ccccc1-c1cnc(OCCN(C)C)nc1C(=O)N(C)Cc1cc(C(F)(F)F)cc(C(F)(F)F)c1` [Example 21, 2-(2-Dimethylamino-ethoxy)-5-o-tolyl-pyrimidine-4-carboxylic acid (3,5-bis-trifluoromethyl-benzyl)-methyl-amide], the Ki at human NK1 receptor is 2.19 nM.

Turning to `Cc1ccccc1-c1cnc(OCCN(C)C)nc1N(C)C(=O)C(C)(C)c1cc(C(F)(F)F)cc(C(F)(F)F)c1` [Example 79, 2-(3,5-Bis-trifluoromethyl-phenyl)-N-[2-(2-dimethylamino-ethoxy)-5-o-tolyl-pyrimidin-4-yl]-N-methyl-isobutyramide], the Ki at human NK1 receptor is 0.661 nM.

For `CN1CCN(c2ncc(-c3ccccc3Cl)c(C(=O)N(C)Cc3cc(C(F)(F)F)cc(C(F)(F)F)c3)n2)CC1` [Example 13, 5-(2-Chloro-phenyl)-2-(4-methyl-piperazin-1-yl)-pyrimidine-4-carboxylic acid (3,5-bis-trifluoromethyl-benzyl)-methyl-amide], the Ki on human NK1 receptor is 6.17 nM.

As to `CN1CCN(c2ncc(-c3cccc4ccccc34)c(C(=O)N(C)Cc3cc(C(F)(F)F)cc(C(F)(F)F)c3)n2)CC1` [Example 25, 2-(4-Methyl-piperazin-1-yl)-5-naphthalen-1-yl-pyrimidine-4-carboxylic acid (3,5-bis-trifluoromethyl-benzyl)-methyl-amide], the Ki on human NK1 receptor is 3.72 nM.
